# Results: patent US8183405B2, “Obovatol derivatives or pharmaceutically acceptable salts thereof, preparation method thereof and pharmaceutical composition for the prevention and treatment of cancer containing the same as an active ingredient” (Korea Research Institute of Bioscience and Biotechnology, priority 2008, dated 2012)
# Key:
# [1] = Solubility (Table 1); type: physicochemical; conditions: for Solubility Insoluble: solvents in which the compound is insoluble; for Solubility Soluble: solvents in which the compound is soluble
# [2] = test system: human cancer cell line; test: Inhibitory effect on growth of cancer cell (WST-1); type: cell-based; conditions: for OD: 48 hours, WST-1, absorbance at 450 nm, control OD 0.604
# Method: The compounds prepared in Examples 1, 2 and 3 were evaluated for inhibitory activity against the growth of a human cancer cell line using WST-1. Human cancer cell lines were incubated in 10% fetal bovine serum (FBS)-supplemented media at 37°C. in a 5% CO2 atmosphere, followed by detaching the cells with 0.05% trypsin-EDTA.
# Cells were plated onto […] at a density of 4,000 cells (A549, MDA-MB-231), 5,000 cells (HEK293, NCI-H23) or 6,000 cells (HCA-7, HCT116, SW620, DU145) per well, which were counted using a hematocytometer.
# After incubation in 10% FBS-supplemented media at 37°C. for 24 hours in a 5% CO2 incubator, the media was changed with fresh media containing a control (0.1% DMSO) or the compound of Example 1 in an amount of 5, 10, 15, 20, 25 or 30 μg/ml (dissolved in DMSO and diluted in the medium). After 48 hours of treatment, WST-1 (Roche) was added in an amount of 10 μl to each well and incubated for 2 hrs. Absorbance at 450 nm was read in an ELISA reader (Bio-Rad).
# [3] = test system: colorectal cancer cells (SW620); test: Apoptotic effect on cancer cells (annexin V-FITC/PI FACS); type: cell-based, human; conditions: 50 μM, 48 hours, 14.12% at pre-treatment
# Method: Apoptosis was analyzed using flow cytometry. First, colorectal cancer cells (SW620) were treated with 0.1% DMSO (negative control), 0 μM, 30 μM or 50 μM of the compound of Example 1 for 48 hours and detached with 0.05% trypsin-EDTA. After being harvested through centrifugation, the cells were washed twice with PBS (phosphate-buffered saline) and suspended at a density of 1×10^6 cells/ml in a 1× binding buffer (10 mM Hepes/NaOH, pH 7.4, 140 mM NaCl, and 2.5 mM CaCl2). 100 μl of the cell suspension was transferred into a 5 ml culture tube, mixed with 5 μl of annexin V-FITC and 10 μl of PI (propidium iodide), and incubated at room temperature for 15 min in a light-tight condition. Then, 400 μl of 1×binding buffer was added to each tube, followed by FACS analysis for annexin V-FITC-stained cells (Moussa Alkhalaf, Abdulla El-Mowafy, Waleed Renno, Ousama Rachid, Ahmed Ali, and Raja Al-Attyiah, Archives of Medical Research 39, 162-168, 2006).
# In FACS plots of FIG. 1, the distribution of stained cells is shown. Cell migration to the second quadrant and the fourth quadrant refers to an increase in chromosome number, meaning an increased number of cells in the G2/M phase or S phase.
# The third quadrant and the fourth quadrant of the FACS plot indicate cells expressing the early apoptosis marker annexin V.
# [4] = Assay for acute oral toxicity in rat; conditions: SD, in vivo, 500 mg/kg, oral administration, rats
# Method: Specific pathogen free (SPF) SD rats 6 weeks old were used for this assay. The obovatol derivative prepared in Example 1 or 2 was dissolved in distilled water, and the solution was orally administered at a dose of 500 mg/kg to respective groups of two rats.
# Autopsies were performed to check for abnormalities of the thoracic and abdominal organs with the naked eye.
Solubility Insoluble [1],Solubility Soluble [1],SMILES,other results
Water,"Alcohol, DMSO","CCCc1ccc(Oc2cc(CCC)cc(OC(=O)COC)c2OC(=O)COC)cc1 [Example 7, 1-(4-propylphenoxy)-2,3-di-2-methoxyacetyloxy-5-propylbenzene]",–
Water,"Alcohol, DMSO","C/C=C/c1ccc(Oc2cc(/C=C/C)cc(O)c2O)cc1 [Example 8, 3-(4-((E)-prop-1-enyl)phenoxy)-5-((E)-prop-1-enyl)benzene-1,2-diol]",–
Water,"Alcohol, DMSO","CCCc1ccc(Oc2cc(CCC)cc(OC(C)=O)c2OC(C)=O)cc1 [Example 6, 1-(4-propylphenoxy)-2,3-diacetyloxy-5-propylbenzene]",–
"Hexane, Water","Alcohol, DMSO","C=CCc1ccc(Oc2cc(CC=C)cc(OC(=O)COC)c2OC(=O)COC)cc1 [Example 4, 1-(4-allylphenoxy)-5-allyl-2,3-di-2-methoxyacetyloxybenzene]",–
"Hexane, Water","Alcohol, DMSO","CCCc1ccc(Oc2cc(CCC)cc(O)c2OC)cc1 [Example 5, 3-(4-propylphenoxy)-2-methoxy-5-propylphenol]",–
Water,"Alcohol, DMSO","C/C=C/c1ccc(Oc2cc(/C=C/C)cc(OC(C)=O)c2OC(C)=O)cc1 [Example 9, 1-(4-((E)-prop-1-enyl)phenoxy)-2,3-diacetyloxy-5-((E)-prop-1-enyl) benzene]",–
Water,"Alcohol, DMSO","C/C=C/c1ccc(Oc2cc(/C=C/C)cc(OC(=O)COC)c2OC(=O)COC)cc1 [Example 10, 1-(4-((E)-prop-1-enyl)phenoxy)-2,3-di-2-methoxyacetyloxy-5-((E)-prop-1-enyl)benzene]",–
"Hexane, Water","Alcohol, DMSO","C=CCc1ccc(Oc2cc(CC=C)cc(OC(C)=O)c2OC(C)=O)cc1 [Example 3, 1-(4-allylphenoxy)-5-allyl-2,3-diacetyloxybenzene]",–

SMILES,Solubility Insoluble [1],Solubility Soluble [1],other results
"CCCc1ccc(Oc2cc(CCC)cc(O)c2O)cc1 [Example 1, 3-(4-propylphenoxy)-5-propylbenzene-1,2-diol]",Water,"Alcohol, DMSO",OD ([2]; 5 μg/ml): 0.592; OD ([2]; 10 μg/ml): 0.557; OD ([2]; 15 μg/ml): 0.474; OD ([2]; 20 μg/ml): 0.247; OD ([2]; 25 μg/ml): 0.149; OD ([2]; 30 μg/ml): 0.141; inhibit the growth of cancer cells ([2]; concentration of 20 μg/ml or higher): ≥ 50%; fraction of the cells migrating to the third quadrant (annexin V) [3]: 59.58%; LD50 [4]: ≥ 500 mg/kg
"C=CCc1ccc(Oc2cc(CC=C)cc(O)c2OC)cc1 [Example 2, 3-(4-allylphenoxy)-5-allyl-2-methoxyphenol]","Hexane, Water","Alcohol, DMSO",LD50 [4]: ≥ 500 mg/kg
